From US9409966B2, “Glucagon-like peptide-1 derivatives and their pharmaceutical use” (priority 2007, dated 2016)
Where two headings read alike, the source gives them in different places. *1 amine or outer side, *2 acyl side, *3 side chain or, on linkers, in order; H or OH if unused. Where a SMILES comes first, the peptide text is derived from it. Side-chain parts run from the residue outwards. [ ]: non-standard residue; d: D form. The star is where a group is joined. X1 = O=C(CCCCCCCCCCCCCCCc1nnn[nH]1)NS(=O)(=O)CCCC(=O)*; C18 diacid = O=C(O)CCCCCCCCCCCCCCCCC(=O)*; γGlu = O=C(O)[C@H](CCC(=O)[*:2])N[*:1]; 12Ado = NCCCCCCCCCCCC(=O)O; AEEA = NCCOCCOCC(=O)O; Aib = CC(C)(N)C(=O)O

Columns and labels:
[1] = target: human serum albumin (HSA) (Homo sapiens, UniProt P02768); experiment: Albumin binding affinity, competition scintillation proximity assay (SPA)
Method: Streptavidin-SPA beads (GE Healthcare RPNQ0009) were incubated with biotinylated HSA for 5 hours. The beads were washed with buffer to remove unbound HSA. […] After 20 hours of gentle rocking at room temperature the plates were centrifuged and counted on a TopCounter.

human GLP-1 receptor = target: T1, human GLP-1 receptor (Homo sapiens, UniProt P43220); experiment: Stimulation of cAMP formation in a cell line expressing the cloned human GLP-1 receptor; format: biochemical
T1 construct: expressed in transfected cells; host or cells: BHK467-12A (tk-ts13) baby hamster kidney cells; purified plasma membranes
Method: A stable transfected cell line has been prepared at NN A/S, Denmark, and a high expressing clone was selected for screening. The cells were grown at 5% CO2 in DMEM, 5% FCS, 1% Pen/Strep (Penicillin/Streptomycin) and 0.5 mg/ml of the selection marker G418.
Cells at approximate 80% confluence were washed 2× with PBS (Phosphate Buffered Saline) and harvested with Versene (aqueous solution of the tetrasodium salt of ethylenediaminetetraacetic acid), centrifuged 5 min at 1000 rpm and the supernatant removed. The additional steps were all made on ice. […] Suspension in Buffer 2, homogenization and centrifugation was repeated once and the membranes were resuspended in Buffer 2 and ready for further analysis or stored at −80° C.
The functional receptor assay was carried out by measuring the peptide induced cAMP production by The AlphaScreen Technology. […] The capture of cAMP is achieved by using a specific antibody conjugated to acceptor beads. Formed cAMP was counted and measured at a AlphaFusion Microplate Analyzer. The EC50 values were calculated using the Graph-Pad Prisme software (version 5).

[2] = cAMP production, purified plasma membranes from BHK467-12A (tk-ts13), AlphaScreen cAMP Assay Kit, read-out: Potency [EC50/nM]

T1 sequence (P43220 24-463): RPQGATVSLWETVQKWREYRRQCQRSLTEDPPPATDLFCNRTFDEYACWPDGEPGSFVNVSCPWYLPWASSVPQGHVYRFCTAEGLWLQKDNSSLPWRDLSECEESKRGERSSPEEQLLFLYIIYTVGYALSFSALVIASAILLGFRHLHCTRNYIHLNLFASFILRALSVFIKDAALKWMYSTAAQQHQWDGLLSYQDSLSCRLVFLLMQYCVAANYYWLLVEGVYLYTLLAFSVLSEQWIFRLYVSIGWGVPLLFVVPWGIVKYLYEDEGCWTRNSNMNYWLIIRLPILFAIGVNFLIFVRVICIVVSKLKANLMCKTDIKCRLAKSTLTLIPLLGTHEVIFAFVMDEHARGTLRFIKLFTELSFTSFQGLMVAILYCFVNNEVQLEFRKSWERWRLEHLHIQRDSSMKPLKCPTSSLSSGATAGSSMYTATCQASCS
human serum albumin (HSA), sequence (P02768 25-609): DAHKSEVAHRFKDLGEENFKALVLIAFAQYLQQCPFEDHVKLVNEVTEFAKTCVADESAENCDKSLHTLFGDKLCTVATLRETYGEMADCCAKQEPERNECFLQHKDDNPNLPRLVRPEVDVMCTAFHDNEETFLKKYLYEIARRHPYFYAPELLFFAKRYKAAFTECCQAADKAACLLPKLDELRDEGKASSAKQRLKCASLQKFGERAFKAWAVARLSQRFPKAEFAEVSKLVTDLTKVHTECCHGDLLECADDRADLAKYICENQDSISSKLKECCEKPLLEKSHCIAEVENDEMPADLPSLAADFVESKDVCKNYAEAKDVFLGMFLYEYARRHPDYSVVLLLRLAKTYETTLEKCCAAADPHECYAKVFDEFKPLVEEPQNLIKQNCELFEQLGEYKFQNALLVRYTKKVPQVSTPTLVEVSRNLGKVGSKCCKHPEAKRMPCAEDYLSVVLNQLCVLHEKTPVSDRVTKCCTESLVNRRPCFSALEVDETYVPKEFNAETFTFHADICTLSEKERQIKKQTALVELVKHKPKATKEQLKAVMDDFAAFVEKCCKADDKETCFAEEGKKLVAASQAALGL

Row | Structure (SMILES) | EC50 [1] [nM] | EC50 (human GLP-1 receptor; [2]) [nM] | EC50 (human GLP-1 receptor) [nM]
1 | CC[C@H](C)[C@H](NC(=O)[C@H](Cc1ccccc1)NC(=O)[C@H](CCC(=O)O)NC(=O)[C@H](CCCNC(=N)N)NC(=O)[C@H](C)NC(=O)[C@H](C)NC(=O)[C@H](CCC(N)=O)NC(=O)[C@H](CCC(=O)O)NC(=O)[C@H](CCC(=O)O)NC(=O)[C@H](CC(C)C)NC(=O)[C@H](Cc1ccc(O)cc1)NC(=O)[C@H](CO)NC(=O)[C@H](CO)NC(=O)[C@@H](NC(=O)[C@H](CC(=O)O)NC(=O)[C@H](CO)NC(=O)[C@@H](NC(=O)[C@H](Cc1ccccc1)NC(=O)[C@@H](NC(=O)CNC(=O)[C@H](CCC(=O)O)NC(=O)[C@H](C)NC(=O)CCc1c[nH]cn1)[C@@H](C)O)[C@@H](C)O)C(C)C)C(=O)N[C@@H](C)C(=O)N[C@@H](Cc1c[nH]c2ccccc12)C(=O)N[C@@H](CC(C)C)C(=O)N[C@H](C(=O)N[C@@H](CCCNC(=N)N)C(=O)NCC(=O)N[C@@H](CCCNC(=N)N)C(=O)N[C@@H](CCCCNC(=O)COCCOCCNC(=O)CC[C@H](NC(=O)CC[C@H](NC(=O)CC[C@H](NC(=O)CCCCCCCCCCCCCCCCCCC(=O)O)C(=O)O)C(=O)O)C(=O)O)C(=O)O)C(C)C [Example 25, N-epsilon37-(2-{2-[2-((S)-4-Carboxy-4-{(S)-4-carboxy-4-[(S)-4-carboxy-4-(19-carboxy-nonadecanoylamino)butyrylamino]butyrylamino}butyrylamino)ethoxy]ethoxy}acetyl)[DesaminoHis7,Glu22,Arg26,Arg34,Lys37]GLP-1-(7-37)] | 150 to 200 | 0.36 | –
2 | CC[C@H](C)[C@H](NC(=O)[C@H](Cc1ccccc1)NC(=O)[C@H](CCC(=O)O)NC(=O)[C@H](CCCNC(=N)N)NC(=O)[C@H](C)NC(=O)[C@H](C)NC(=O)[C@H](CCC(N)=O)NC(=O)[C@H](CCC(=O)O)NC(=O)[C@H](CCC(=O)O)NC(=O)[C@H](CCCCNC(=O)COCCOCCNC(=O)CC[C@H](NC(=O)CC[C@H](NC(=O)CCCCCCCCCCCNC(=O)CCCS(=O)(=O)NC(=O)CCCCCCCCCCCCCCCc1nnn[nH]1)C(=O)O)C(=O)O)NC(=O)[C@H](Cc1ccc(O)cc1)NC(=O)[C@H](CO)NC(=O)[C@H](CO)NC(=O)[C@@H](NC(=O)[C@H](CC(=O)O)NC(=O)[C@H](CO)NC(=O)[C@@H](NC(=O)[C@H](Cc1ccccc1)NC(=O)[C@@H](NC(=O)CNC(=O)[C@H](CCC(=O)O)NC(=O)C(C)(C)NC(=O)[C@@H](N)Cc1c[nH]cn1)[C@@H](C)O)[C@@H](C)O)C(C)C)C(=O)N[C@@H](CCC(=O)O)C(=O)N[C@@H](Cc1c[nH]c2ccccc12)C(=O)N[C@@H](CC(C)C)C(=O)N[C@H](C(=O)N[C@@H](CCCCN)C(=O)NCC(=O)N[C@@H](CCCNC(=N)N)C(=O)N1CCC[C@H]1C(N)=O)C(C)C [Example 11, N-epsilon20-[2-(2-{2-[(S)-4-Carboxy-4-((S)-4-carboxy-4-{12-[4-(16-(1H-tetrazol-5-yl)hexadecanoylsulfamoyl)butyrylamino]dodecanoylamino}butyrylamino)butyrylamino]ethoxy}ethoxy)acetyl][Aib8,Lys20,Glu22,Arg26,Glu30,Pro37]GLP-1-(7-37)amide] (H-H[Aib]EGTFTSDVSSYK([AEEA-γGlu-γGlu-12Ado-X1])EEQAAREFIEWLVKGRP-NH2) | 1 to 100 | 0.61 | –
3 | CC[C@H](C)[C@H](NC(=O)[C@H](Cc1ccccc1)NC(=O)[C@H](CCC(=O)O)NC(=O)[C@H](CCCNC(=N)N)NC(=O)[C@H](C)NC(=O)[C@H](C)NC(=O)[C@H](CCC(N)=O)NC(=O)[C@H](CCC(=O)O)NC(=O)[C@H](CCC(=O)O)NC(=O)[C@H](CC(C)C)NC(=O)[C@H](Cc1ccc(O)cc1)NC(=O)[C@H](CO)NC(=O)[C@H](CO)NC(=O)[C@@H](NC(=O)[C@H](CC(=O)O)NC(=O)[C@H](CO)NC(=O)[C@@H](NC(=O)[C@H](Cc1ccccc1)NC(=O)[C@@H](NC(=O)CNC(=O)[C@H](CCC(=O)O)NC(=O)C(C)(C)NC(=O)[C@@H](N)Cc1c[nH]cn1)[C@@H](C)O)[C@@H](C)O)C(C)C)C(=O)N[C@@H](C)C(=O)N[C@@H](CCCCNC(=O)COCCOCCNC(=O)COCCOCCNC(=O)CC[C@H](NC(=O)CCCCCCCCCCCCCCCCC(=O)O)C(=O)O)C(=O)N[C@@H](CC(C)C)C(=O)N[C@H](C(=O)N[C@@H](CCCCN)C(=O)NCC(=O)N[C@@H](CCCNC(=N)N)C(=O)NCC(=O)O)C(C)C [Example 23, N-epsilon31-[2-(2-{2-[2-(2-{2-[4-Carboxy-4-(17-carboxy-heptadecanoylamino)butyrylamino]ethoxy}ethoxy)acetylamino]ethoxy}ethoxy)acetyl][Aib8,Glu22,Arg26,Lys31]GLP-1-(7-37)] (H-H[Aib]EGTFTSDVSSYLEEQAAREFIAK([AEEA-AEEA-γGlu-C18 diacid])LVKGRG-OH) | 1500 to 2000 | 0.02 | –
4 | CC[C@H](C)[C@H](NC(=O)[C@H](Cc1ccccc1)NC(=O)[C@H](CCC(=O)O)NC(=O)[C@H](CCCNC(=N)N)NC(=O)[C@H](C)NC(=O)[C@H](C)NC(=O)[C@H](CCC(N)=O)NC(=O)[C@H](CCC(=O)O)NC(=O)[C@H](CCC(=O)O)NC(=O)[C@H](CC(C)C)NC(=O)[C@H](Cc1ccc(O)cc1)NC(=O)[C@H](CO)NC(=O)[C@H](CO)NC(=O)[C@@H](NC(=O)[C@H](CC(=O)O)NC(=O)[C@H](CO)NC(=O)[C@@H](NC(=O)[C@H](Cc1ccccc1)NC(=O)[C@@H](NC(=O)CNC(=O)[C@H](CCC(=O)O)NC(=O)C(C)(C)NC(=O)[C@@H](N)Cc1c[nH]cn1)[C@@H](C)O)[C@@H](C)O)C(C)C)C(=O)N[C@@H](C)C(=O)N[C@@H](Cc1c[nH]c2ccccc12)C(=O)N[C@@H](CC(C)C)C(=O)N[C@H](C(=O)N[C@@H](CCCNC(=N)N)C(=O)NCC(=O)N[C@@H](CCCNC(=N)N)C(=O)N[C@@H](CCCCNC(=O)COCCOCCNC(=O)COCCOCCNC(=O)CC[C@H](NC(=O)[C@H]1CC[C@H](CNC(=O)CCCCCCCCCCCCCCCCCCC(=O)O)CC1)C(=O)O)C(=O)O)C(C)C [Example 32, N-epsilon37-[2-(2-{2-[2-(2-{2-[(S)-4-Carboxy-4-({trans-4-[(19-carboxynonadecanoylamino)methyl]cyclohexanecarbonyl}amino)butyrylamino]ethoxy}ethoxy)acetylamino]ethoxy}ethoxy)acetyl][Aib8,Glu22,Arg26,Arg34,Lys37]GLP-1-(7-37)] | 1 to 100 | – | 0.46

More lines, main results first:

Row | EC50 [1] [nM] | EC50 (human GLP-1 receptor; [2]) [nM] | Structure (SMILES) | EC50 (human GLP-1 receptor) [nM]
5 | 400 to 800 | 0.37 | CC[C@H](C)[C@H](NC(=O)[C@H](Cc1ccccc1)NC(=O)[C@H](CCC(=O)O)NC(=O)[C@H](CCCNC(=N)N)NC(=O)[C@H](C)NC(=O)[C@H](C)NC(=O)[C@H](CCC(N)=O)NC(=O)[C@H](CCC(=O)O)NC(=O)[C@H](CCC(=O)O)NC(=O)[C@H](CC(C)C)NC(=O)[C@H](Cc1ccc(O)cc1)NC(=O)[C@H](CO)NC(=O)[C@H](CO)NC(=O)[C@@H](NC(=O)[C@H](CC(=O)O)NC(=O)[C@H](CO)NC(=O)[C@@H](NC(=O)[C@H](Cc1ccccc1)NC(=O)[C@@H](NC(=O)CNC(=O)[C@H](CCC(=O)O)NC(=O)[C@H](C)NC(=O)CCc1c[nH]cn1)[C@@H](C)O)[C@@H](C)O)C(C)C)C(=O)N[C@@H](C)C(=O)N[C@@H](Cc1c[nH]c2ccccc12)C(=O)N[C@@H](CC(C)C)C(=O)N[C@H](C(=O)N[C@@H](CCCNC(=N)N)C(=O)NCC(=O)N[C@@H](CCCNC(=N)N)C(=O)N[C@@H](CCCCNC(=O)COCCOCCNC(=O)COCCOCCNC(=O)C[C@@H](NC(=O)C1CCN(C(=O)CCCCCCCCCCCCCCCCCCC(=O)O)CC1)C(=O)O)C(N)=O)C(C)C [Example 1, N-epsilon37{2-[2-(2-{2-[2-((R)-3-carboxy-3-{[1-(19-carboxynonadecanoyl)piperidine-4-carbonyl]amino}propionylamino)ethoxy]ethoxy}acetylamino)ethoxy]ethoxy}acetyl [desaminoHis7,Glu22,Arg26,Arg34,Lys37]GLP-1(7-37)amide] | –
6 | 800 to 1500 | 0.5 | CC[C@H](C)[C@H](NC(=O)[C@H](Cc1ccccc1)NC(=O)[C@H](CCC(=O)O)NC(=O)[C@H](CCCNC(=N)N)NC(=O)[C@H](C)NC(=O)[C@H](C)NC(=O)[C@H](CCC(N)=O)NC(=O)[C@H](CCC(=O)O)NC(=O)[C@H](CCC(=O)O)NC(=O)[C@H](CC(C)C)NC(=O)[C@H](Cc1ccc(O)cc1)NC(=O)[C@H](CO)NC(=O)[C@H](CO)NC(=O)[C@@H](NC(=O)[C@H](CC(=O)O)NC(=O)[C@H](CO)NC(=O)[C@@H](NC(=O)[C@H](Cc1ccccc1)NC(=O)[C@@H](NC(=O)CNC(=O)[C@H](CCC(=O)O)NC(=O)[C@H](C)NC(=O)CCc1c[nH]cn1)[C@@H](C)O)[C@@H](C)O)C(C)C)C(=O)N[C@@H](C)C(=O)N[C@@H](Cc1c[nH]c2ccccc12)C(=O)N[C@@H](CC(C)C)C(=O)N[C@H](C(=O)N[C@@H](CCCNC(=N)N)C(=O)NCC(=O)N[C@@H](CCCNC(=N)N)C(=O)N[C@@H](CCCCNC(=O)COCCOCCNC(=O)COCCOCCNC(=O)CC[C@H](NC(=O)[C@H]1CC[C@H](CNC(=O)CCCCCCCCCCCCCCCCCCC(=O)O)CC1)C(=O)O)C(=O)O)C(C)C [Example 9, N-epsilon37-[2-(2-{2-[2-(2-{2-[(S)-4-Carboxy-4-({trans-4-[(19-carboxy-nonadecanoylamino)methyl]cyclohexanecarbonyl}amino)butyrylamino]ethoxy}ethoxy)acetylamino]ethoxy}ethoxy)acetyl][DesaminoHis7,Glu22,Arg26,Arg34,Lys37]GLP-1-(7-37)] | –
